Where two headings read alike, the source gives them in different places.
Key:
HCK [1] = biological target: T1, HCK (Homo sapiens, UniProt P08631); assay: Kinase active-site inhibition assay (ATP-biotin probe, western blot) in BCWM.1 cells; type: binding; set-up: endogenous in cells; host or cells: BCWM.1 (A3); BCWM.1, MWCL-1, TMD-8 (A8); WM and ABC DLBCL lines and primary WM cells (A12); conditions: BCWM.1 WM cells, pre-treated 1 hour, various concentrations
Method: (§1) Cells then washed with PBS twice, and lysed with co-IP buffer (Invitrogen, Grand Island N.Y.). Two mg of protein from lysed cells was then incubated with […] of Pierce Streptavidin Magnetic Beads (Thermo Fisher Scientific, Cambridge Mass.) at 4° C. for 1 hour, then washed with TBST (0.1% Tween-20) thrice, and proteins eluted with SDS-PAGE sample buffer. […] Cells then were lysed and kinases were pulled down with ATP-biotin using Pierce™ Kinase Enrichment Kit (Thermo Fisher Scientific) per manufacturer's instructions. Kinases were eluted with SDS-PAGE sample buffer and detected by western blot.

LYN [2] = biological target: T2, LYN (Homo sapiens, UniProt P07948); assay: KiNativ profiling in WM cell lines; type: binding; set-up: endogenous in cells; host or cells: BCWM.1 and MWCL-1 WM cell lines; conditions: for inhibition at 1 µM: read-out: KiNativ profiling, LYN inhibition (labeling site Lys1); for KiNativ profiling, LYN inhibition (labeling site Lys1): 1 μM
CD19+ bone marrow cells = assay: Apoptosis by flow cytometry in cells from a WM patient resistant to ibrutinib; type: cell-based, human
Method: (§2) Apoptosis analysis was performed using Annexin V/Propidium iodide staining with the Apoptosis Detection Kit I (BD Pharmingen, San Jose Calif.). Cells (1×10^6/well) were treated in 24 well plates for 18 hours with inhibitors or corresponding controls. A minimum of 10,000 events were acquired using a BD™ FACSCanto II flow cytometer, and analyzed with BD FACS DIVA Software. For WM patient cells, BMMC (2×10^6/well) were treated with inhibitors, and CD19-APC-cy7 antibody (BD Pharmingen) was used with Annexin V antibody to analyze WM cell apoptosis. AlamarBlue® cell viability assay (Life Technologies, Carlsbad Calif.) was used to assess cell death following inducible HCK knockdown. For these experiments, transduced cells (1×10^5/ml) were cultured with tetracycline, and aliquoted every other day on days 1-11. AlamarBlue® solution ( 1/10 total volume) was added to cells and incubated for 2 hours. Aliquoted plates were read in a SpectraMax M3 plate reader (Molecular Devices, Sunnyvale, Calif.). Relative cell survival was calculated as percentage of fluorescence relative to scrambled control. The CellTiter-Glo® Luminescent cell viability assay (Promega, Madison Wis.) was used to assess the dose-response of inhibitors. […] Luminescent measurement was performed using the 2104 Envision® Multilabel Reader (PerkinElmer Inc.).

LYN [3] = biological target: T2, LYN; assay: Kinase active-site inhibition assay (ATP-biotin probe, western blot) in BCWM.1 cells; type: binding; set-up: endogenous in cells; host or cells: BCWM.1; conditions: BCWM.1 WM cells, pre-treated 1 hour, various concentrations
Method: as §1

HCK (pTyr^411) = biological target: T3, HCK (pTyr^411) (Homo sapiens, UniProt P08631); assay: PhosFlow analysis of HCK Tyr411 phosphorylation; type: cell-based; conditions: MYD88 L265P WM and ABC DLBCL cell lines and primary WM LPC, 0.5 μM, 30 minutes
T3 construct: endogenous in cells; host or cells: BCWM.1 (A3); BCWM.1, MWCL-1, TMD-8 (A8); WM and ABC DLBCL lines and primary WM cells (A12)
Method: PhosFlow analysis was performed to delineate HCK phosphorylation. Cells were fixed with BD PhosFlow Fix Buffer I at 37° C. for 10 min. Cells were then centrifuged (300×g for 5 min) and washed twice with PhosFlow Perm/Wash Buffer I (BD Pharmingen). […] Following staining, cells were incubated in the dark for 30 min at room temperature, then washed thrice with BD PhosFlow Perm/Wash Buffer I, followed by anti-Rabbit IgG DyLight®-649 secondary antibody (Abcam), and incubated for an additional 20 min. Cells were then washed twice with BD PhosFlow Perm/Wash Buffer I and flow analysis performed using a BD™ FACSCanto II Flow Cytometer.
(§3) We also evaluated tumor cell viability by the CellTiter-Glo® Luminescent cell viability assay, and apoptosis by propidium iodide and Annexin V staining to determine if HCK inhibition contributed to WM cell death.

FYN, SRC, YES = assay: KiNativ profiling in WM cell lines; type: binding, Homo sapiens; conditions: 1 μM
[4] = system: MYD88^WT cell lines or healthy donor B-cells; assay: Apoptosis by propidium iodide and Annexin V staining; type: cell-based; conditions: data not shown
Method: (§4) Apoptosis analysis was performed using Annexin V/Propidium iodide staining with the Apoptosis Detection Kit I (BD Pharmingen, San Jose Calif.). Cells (1×10^6/well) were treated in 24 well plates for 18 hours with inhibitors or corresponding controls. A minimum of 10,000 events were acquired using a BD™ FACSCanto II flow cytometer, and analyzed with BD FACS DIVA Software. For WM patient cells, BMMC (2×10^6/well) were treated with inhibitors, and CD19-APC-cy7 antibody (BD Pharmingen) was used with Annexin V antibody to analyze WM cell apoptosis. AlamarBlue® cell viability assay (Life Technologies, Carlsbad Calif.) was used to assess cell death following inducible HCK knockdown. For these experiments, transduced cells (1×10^5/ml) were cultured with tetracycline, and aliquoted every other day on days 1-11. AlamarBlue® solution ( 1/10 total volume) was added to cells and incubated for 2 hours. Aliquoted plates were read in a SpectraMax M3 plate reader (Molecular Devices, Sunnyvale, Calif.). Relative cell survival was calculated as percentage of fluorescence relative to scrambled control. The CellTiter-Glo® Luminescent cell viability assay (Promega, Madison Wis.) was used to assess the dose-response of inhibitors. Cells were seeded into 384 well plates with the EL406 Combination Washer Dispenser (BioTek Instruments, Inc.) and inhibitors injected into the cells culture media with the JANUS Automated Workstation (PerkinElmer Inc., Waltham Mass.). Cells were treated with serial diluted inhibitors […] for 72 hours at 37° C. Luminescent measurement was performed using the 2104 Envision® Multilabel Reader (PerkinElmer Inc.).
as §3

[5] = system: mutated MYD88 cell lines and primary WM cells; assay: as above; type: cell-based; conditions: 0.5 μM, 18 hours
Method: as §4, §3

[6] = system: mutated MYD88 expressing WM and ABC DLBCL cell lines; assay: CellTiter-Glo Luminescent cell viability assay; type: cell-based
Method: as §2, with “AlamarBlue® solution ( 1/10 total volume) was added to cells and incubated for 2 hours.” left out, “control.” for “control. The CellTiter-Glo® Luminescent cell viability assay (Promega, Madison Wis.) was used to assess the dose-response of inhibitors.”
as §3

CD5+CD19+ PBMC cells = assay: Apoptosis ex vivo in cells from a CLL patient resistant to ibrutinib; type: cell-based, human; conditions: DMSO 11.9%
SRC = biological target: T4, SRC (Homo sapiens, UniProt P12931); assay: Kinase active-site inhibition assay (ATP-biotin probe, western blot) in BCWM.1 cells; type: binding; conditions: BCWM.1 WM cells, pre-treated 1 hour, various concentrations
T4 construct: endogenous in cells; host or cells: BCWM.1
Method: as §1

TMD-8 ABC DLBCL cells = assay: Cell viability of TMD-8 cells transfected with BTK vectors; type: cell-based; conditions: FIG. 8B
BCWM.1 WM cells = assay: Dose dependent tumor cell survival of BCWM.1 cells transduced with BTK or HCK vectors; type: cell-based
From the text: as §3

HCK [7] = biological target: T1, HCK; conditions: read-out: IC50 kinase activity of HCK; cited from earlier work
BTK = biological target: T5, BTK (Homo sapiens, UniProt Q06187); assay: Kinase active-site inhibition assay (ATP-biotin probe, western blot) in BCWM.1 cells; type: binding; conditions: BCWM.1 WM cells, pre-treated 1 hour, various concentrations
T5 construct: endogenous in cells; host or cells: BCWM.1 (A4); BCWM.1, MWCL-1, TMD-8 (A7)
Method: as §1

| SMILES | blocking of ATP binding to HCK (HCK [1]) | inhibition at 1 µM (LYN [2]; BCWM.1 cells) [%] | inhibition at 1 µM (LYN [2]; MWCL-1 cells) [%] | blocking of ATP binding to LYN (LYN [3]) | change in HCK Tyr411 phosphorylation (HCK (pTyr^411)) | KiNativ profiling, FYN, SRC, YES (labeling site Activation Loop) (FYN, SRC, YES; BCWM.1 cells) | KiNativ profiling, FYN, SRC, YES (labeling site Activation Loop) (FYN, SRC, YES; MWCL-1 cells) | apoptotic activity [4] | apoptotic changes [5] | blocking of ATP binding to SRC (SRC) | further results |
| --- | --- | --- | --- | --- | --- | --- | --- | --- | --- | --- | --- |
| CN1CCN([C@H]2CC[C@H](n3cc(-c4ccc(Oc5ccccc5)cc4)c4c(N)ncnc43)CC2)CC1 [A419259] | blocked ATP binding to HCK in a dose-dependent manner | > 99 | > 99 | blocked ATP binding to the SRC family members SRC and LYN | reduced HCK Tyr^411 phosphorylation | >99 | 98.1 | little or no apoptotic activity | Increased apoptotic changes | blocked ATP binding to the SRC family members SRC and LYN | apoptotic cells (CD19+ bone marrow cells; 0.1 μM): 20.8%; apoptotic cells (CD19+ bone marrow cells; 0.5 μM): 24.6%; dose-dependent viability ([6]; 72 hours, more pronounced in mutated MYD88 than MYD88 WT cells): Decreased dose-dependent viability; apoptotic cells (CD5+CD19+ PBMC cells; 0.1 μM): 18.4%; apoptotic cells (CD5+CD19+ PBMC cells; 0.5 μM): 25.6% |
| C=CC(=O)Nc1cccc(Nc2nc(Nc3ccc(OCCOC)cc3)ncc2F)c1 [CC-292] | not CC-292 blocked ATP binding to HCK |  |  | did not block ATP binding to either SRC or LYN | little or no impact on HCK Tyr^411 phosphorylation | 10.5 | −0.4 | little or no apoptotic activity | little or no impact on apoptosis | did not block ATP binding to either SRC or LYN | KiNativ profiling, LYN inhibition (labeling site Lys1) (LYN [2]; BCWM.1 cells): 15.7; KiNativ profiling, LYN inhibition (labeling site Lys1) (LYN [2]; MWCL-1 cells): 14.2; potency for tumor cell killing in BTK^C481S expressing cells versus wild-type BTK or control vector (TMD-8 ABC DLBCL cells): decreased the potency; potency for tumor cell killing in BTK^C481S expressing cells versus wild-type BTK or control vector (BCWM.1 WM cells; BCWM.1 WM cells, FIG. 8A): reduced potency; change in tumor cell killing with HCK^T333M or wild-type HCK (BCWM.1 WM cells; BCWM.1 transduced to express HCK^T333M or wild-type HCK): No substantial change in tumor cell killing; IC50 (HCK [7]): 14.6 µM; higher EC50 in viability assay ([6]; mutated MYD88 cell lines except OCI-Ly3, 72 hours): > 1 log-fold; blocking of ATP binding to BTK (BTK): blocked ATP binding to BTK |
| C=CC(=O)N1CCC[C@@H](n2nc(-c3ccc(Oc4ccccc4)cc3)c3c(N)ncnc32)C1 [Ibrutinib] |  | 60.5 | 80.6 |  |  |  |  |  |  |  |  |
